Assay results reported in PubChem BioAssay AID248 (DTP/NCI, 2004).
Toxic doses and inconclusive results are not listed. Cut-off read from the data, not from the text of the source: active = T/C of 150% or more; inactive = T/C below 125%.

System: L1210 leukemia ip in BDF1 mice, survival T/C
Assay: NCI In Vivo Anticancer Drug Screen. Data for tumor model L1210 Leukemia (intraperitoneal) in B6D2F1 (BDF1) mice
Details: endpoint: mean survival time, higher = longer survival
Outline: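 Survival endpoint. Drug-treated group vs vehicle group, expressed as T divided by C. Tumor passaged by transplantation.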

[1] = dose: 100.0 mg/kg/injection, schedule: Q01DX001 (ip), vehicle: Klucel (hydroxypropylcellulose) (HPC)
[2] = dose: 100.0 mg/kg/injection, schedule: Q01DX009 (ip), vehicle: Klucel (hydroxypropylcellulose) (HPC)
[3] = dose: 100.0 mg/kg/injection, schedule: Q04DX003 (ip), vehicle: Klucel (hydroxypropylcellulose) (HPC)
[4] = dose: 200.0 mg/kg/injection, schedule: Q01DX001 (ip), vehicle: Klucel (hydroxypropylcellulose) (HPC)
[5] = dose: 400.0 mg/kg/injection, schedule: Q01DX001 (ip), vehicle: Klucel (hydroxypropylcellulose) (HPC)
[6] = dose: 100.0 mg/kg/injection, schedule: Q01DX001 (ip), vehicle: saline
[7] = dose: 200.0 mg/kg/injection, schedule: Q01DX001 (ip), vehicle: saline
[8] = dose: 400.0 mg/kg/injection, schedule: Q01DX001 (ip), vehicle: saline
[9] = dose: 200.0 mg/kg/injection, schedule: Q01DX009 (ip), vehicle: Klucel (hydroxypropylcellulose) (HPC)
[10] = dose: 200.0 mg/kg/injection, schedule: Q04DX003 (ip), vehicle: Klucel (hydroxypropylcellulose) (HPC)
[11] = dose: 400.0 mg/kg/injection, schedule: Q04DX003 (ip), vehicle: Klucel (hydroxypropylcellulose) (HPC)
[12] = dose: 100.0 mg/kg/injection, schedule: Q04DX002 (ip), vehicle: saline with Tween-80
[13] = dose: 200.0 mg/kg/injection, schedule: Q04DX002 (ip), vehicle: saline with Tween-80
[14] = dose: 100.0 mg/kg/injection, schedule: Q01DX001 (ip), vehicle: carboxymethylcellulose (CMC)
[15] = dose: 200.0 mg/kg/injection, schedule: Q01DX001 (ip), vehicle: carboxymethylcellulose (CMC)
[16] = dose: 300.0 mg/kg/injection, schedule: Q01DX001 (ip), vehicle: carboxymethylcellulose (CMC)
[17] = dose: 400.0 mg/kg/injection, schedule: Q01DX001 (ip), vehicle: carboxymethylcellulose (CMC)
[18] = dose: 100.0 mg/kg/injection, schedule: Q04DX003 (ip), vehicle: saline with Tween-80
[19] = dose: 200.0 mg/kg/injection, schedule: Q04DX003 (ip), vehicle: saline with Tween-80
[20] = dose: 400.0 mg/kg/injection, schedule: Q01DX009 (ip), vehicle: saline with Tween-80
[21] = dose: 400.0 mg/kg/injection, schedule: Q04DX003 (ip), vehicle: saline with Tween-80
[22] = dose: 400.0 mg/kg/injection, schedule: Q01DX009 (ip), vehicle: Klucel (hydroxypropylcellulose) (HPC)
[23] = dose: 100.0 mg/kg/injection, schedule: Q01DX009 (ip), vehicle: saline with Tween-80
[24] = dose: 200.0 mg/kg/injection, schedule: Q01DX009 (ip), vehicle: saline with Tween-80
[25] = dose: 400.0 mg/kg/injection, schedule: Q04DX002 (ip), vehicle: saline with Tween-80

Measured: T/C

NC(=O)N/N=C(\CF)C(=O)O
inactive: dose: 6.0 mg/kg/injection, schedule: Q01DX009 (ip), vehicle: Klucel (hydroxypropylcellulose) (HPC) 98 % of control | dose: 12.0 mg/kg/injection, schedule: Q01DX009 (ip), vehicle: Klucel (hydroxypropylcellulose) (HPC) 110 % of control | dose: 24.0 mg/kg/injection, schedule: Q01DX009 (ip), vehicle: Klucel (hydroxypropylcellulose) (HPC) 101 % of control | dose: 48.0 mg/kg/injection, schedule: Q01DX009 (ip), vehicle: Klucel (hydroxypropylcellulose) (HPC) 102 % of control

CCOC(=O)c1c[nH]c2nc(SC)[nH]c(=O)c2c1=O
inactive: dose: 25.0 mg/kg/injection, schedule: Q01DX009 (ip), vehicle: Klucel (hydroxypropylcellulose) (HPC) 86 % of control | dose: 25.0 mg/kg/injection, schedule: Q04DX003 (ip), vehicle: Klucel (hydroxypropylcellulose) (HPC) 104 % of control | dose: 50.0 mg/kg/injection, schedule: Q01DX009 (ip), vehicle: Klucel (hydroxypropylcellulose) (HPC) 93 % of control | dose: 50.0 mg/kg/injection, schedule: Q04DX003 (ip), vehicle: Klucel (hydroxypropylcellulose) (HPC) 103 % of control | [1] 102 % of control | [2] 101 % of control | [3] 101 % of control | [4] 98 % of control | [5] 107 % of control

Cc1cnc(SCc2ccc(Cl)cc2)nc1N(C)C
inactive: dose: 25.0 mg/kg/injection, schedule: Q01DX Z (ip), vehicle: methylcellulose (MC) 90 % of control | dose: 50.0 mg/kg/injection, schedule: Q01DX Z (ip), vehicle: methylcellulose (MC) 100 % of control

COC(=O)c1coc(C(=O)N2CCCC2)c1C(=O)O
inactive: dose: 75.0 mg/kg/injection, schedule: Q04DX003 (ip), vehicle: Klucel (hydroxypropylcellulose) (HPC) 93 % of control | [1] 103 % of control | dose: 150.0 mg/kg/injection, schedule: Q04DX003 (ip), vehicle: Klucel (hydroxypropylcellulose) (HPC) 105 % of control | [4] 101 % of control | dose: 300.0 mg/kg/injection, schedule: Q04DX003 (ip), vehicle: Klucel (hydroxypropylcellulose) (HPC) 98 % of control | [5] 103 % of control

O=c1onc(-c2ccccc2)c2ccccc12
inactive: dose: 12.5 mg/kg/injection, schedule: Q04DX002 (ip), vehicle: saline with Tween-80 106 % of control | dose: 25.0 mg/kg/injection, schedule: Q04DX002 (ip), vehicle: saline with Tween-80 106 % of control | dose: 50.0 mg/kg/injection, schedule: Q04DX002 (ip), vehicle: saline with Tween-80 103 % of control

N#Cc1ccc(S(=O)(=O)N=C(N)N)cc1
inactive: [6] 100 % of control | [7] 91 % of control | [8] 90 % of control

CCOP(=O)(NC12CC3CC(CC(C3)C1)C2)OCC
inactive: [2] 97 % of control | [3] 93 % of control | [9] 94 % of control | [10] 98 % of control | [11] 90 % of control

CC(=O)NNC(=O)C1CCCCN1 (stereo not given)
inactive: dose: 100.0 mg/kg/injection, schedule: Q01DX001 (ip), vehicle: water 101 % of control | dose: 200.0 mg/kg/injection, schedule: Q01DX001 (ip), vehicle: water 100 % of control | dose: 400.0 mg/kg/injection, schedule: Q01DX001 (ip), vehicle: water 103 % of control

Oc1ccc(CCCc2ccc3c(c2)OCO3)cc1
inactive: [12] 104 % of control | [13] 104 % of control

O=C(CCN1CC2CCC(CC2)C1)c1csc2ccccc12
inactive: dose: 88.8 mg/kg/injection, schedule: Q01DX001 (ip), vehicle: carboxymethylcellulose (CMC) 93 % of control | [14] 91 % of control | dose: 133.4 mg/kg/injection, schedule: Q01DX001 (ip), vehicle: carboxymethylcellulose (CMC) 98 % of control | [15] 97 % of control | [16] 95 % of control | [17] 107 % of control

O=C(Nc1cccc(C(F)(F)F)c1)c1ccc(C(=O)Nc2cccc(C(F)(F)F)c2)cc1
inactive: [18] 95 % of control | [19] 90 % of control | [20] 96 % of control | [21] 95 % of control

O=C(NCCc1cnc[nH]1)C(F)(F)F
inactive: dose: 50.0 mg/kg/injection, schedule: Q01DX009 (ip), vehicle: saline 96 % of control | dose: 100.0 mg/kg/injection, schedule: Q01DX009 (ip), vehicle: saline 96 % of control | dose: 200.0 mg/kg/injection, schedule: Q01DX009 (ip), vehicle: saline 100 % of control

N#Cc1nc(-c2ccccc2)c(-c2ccccc2)nc1C#N
inactive: [2] 97 % of control | [9] 98 % of control | [22] 96 % of control

CC(=O)C1C(=O)N(C)C(=O)N(C)C1=O
inactive: dose: 75.0 mg/kg/injection, schedule: Q01DX001 (ip), vehicle: carboxymethylcellulose (CMC) 97 % of control | dose: 150.0 mg/kg/injection, schedule: Q01DX001 (ip), vehicle: carboxymethylcellulose (CMC) 100 % of control | [16] 103 % of control

CCN(CC)C(=O)Cn1cc(F)c(=O)[nH]c1=O
inactive: [18] 98 % of control | dose: 100.0 mg/kg/injection, schedule: Q04DX003 (ip), vehicle: saline 104 % of control | [19] 101 % of control | dose: 200.0 mg/kg/injection, schedule: Q04DX003 (ip), vehicle: saline 104 % of control | [21] 106 % of control | dose: 400.0 mg/kg/injection, schedule: Q04DX003 (ip), vehicle: saline 98 % of control

CC(C)C(Br)C(=O)NC(Cc1ccccc1)C(=O)O (stereo not given)
inactive: [23] 96 % of control | [24] 96 % of control | [20] 92 % of control

CCOC(=O)C1C(O)=C(P(=O)(C2=C(O)C(C(=O)OCC)C(c3ccc(OC(C)=O)cc3)C(C(=O)O)C2=O)N(CCCl)CCCl)C(=O)C(C(=O)O)C1c1ccc(OC(C)=O)cc1 (stereo not given)
inactive: [2] 97 % of control | [3] 98 % of control | [9] 102 % of control | [10] 98 % of control | [22] 102 % of control | [11] 108 % of control

C(=N\N1CCN(/N=C/c2cccc(OCc3ccccc3)c2)CC1)/c1cccc(OCc2ccccc2)c1
inactive: [6] 96 % of control | [7] 87 % of control | [8] 90 % of control

CC(CCl)OP(=O)(Cc1ccccc1)OC(C)CCl (stereo not given)
inactive: [12] 91 % of control | [13] 98 % of control | [25] 98 % of control

O=C(Nc1cccc2ccccc12)OCCCl
inactive: [14] 93 % of control | [15] 90 % of control | [17] 95 % of control

CCC(C)c1ccc(O)c(CN(CCO)CCO)c1 (stereo not given)
inactive: [6] 105 % of control | [7] 101 % of control

c1ccc([P+](Cc2ccco2)(c2ccccc2)c2ccccc2)cc1
inactive: dose: 5.0 mg/kg/injection, schedule: Q01DX001 (ip), vehicle: saline 103 % of control | dose: 10.0 mg/kg/injection, schedule: Q01DX001 (ip), vehicle: saline 97 % of control | dose: 20.0 mg/kg/injection, schedule: Q01DX001 (ip), vehicle: saline 90 % of control | dose: 40.0 mg/kg/injection, schedule: Q01DX001 (ip), vehicle: saline 89 % of control

CCCOC(=O)C1OC12CCCCC2 (stereo not given)
inactive: [23] 103 % of control | [24] 100 % of control | [20] 103 % of control

C=C1CCCC(O)CCC1
inactive: dose: 75.0 mg/kg/injection, schedule: Q01DX001 (ip), vehicle: other 102 % of control | dose: 150.0 mg/kg/injection, schedule: Q01DX001 (ip), vehicle: other 98 % of control | dose: 300.0 mg/kg/injection, schedule: Q01DX001 (ip), vehicle: other 96 % of control

CCCCNC(=O)C1CCC(CC2CCCCC2)CC1 (stereo not given)
inactive: [12] 90 % of control | [13] 105 % of control | [25] 94 % of control
